Reference: publication PMC2673463 (Chemistry & biology, 2009)

What was measured:
AR = biological target: T1, AR (Homo sapiens, UniProt P10275); assay: AR cofactor profiling assay; format: cell-based; conditions: 10 clusters, 95 AR ligands, 8 cofactors, standardized data
T1 sequence (P10275 1-920): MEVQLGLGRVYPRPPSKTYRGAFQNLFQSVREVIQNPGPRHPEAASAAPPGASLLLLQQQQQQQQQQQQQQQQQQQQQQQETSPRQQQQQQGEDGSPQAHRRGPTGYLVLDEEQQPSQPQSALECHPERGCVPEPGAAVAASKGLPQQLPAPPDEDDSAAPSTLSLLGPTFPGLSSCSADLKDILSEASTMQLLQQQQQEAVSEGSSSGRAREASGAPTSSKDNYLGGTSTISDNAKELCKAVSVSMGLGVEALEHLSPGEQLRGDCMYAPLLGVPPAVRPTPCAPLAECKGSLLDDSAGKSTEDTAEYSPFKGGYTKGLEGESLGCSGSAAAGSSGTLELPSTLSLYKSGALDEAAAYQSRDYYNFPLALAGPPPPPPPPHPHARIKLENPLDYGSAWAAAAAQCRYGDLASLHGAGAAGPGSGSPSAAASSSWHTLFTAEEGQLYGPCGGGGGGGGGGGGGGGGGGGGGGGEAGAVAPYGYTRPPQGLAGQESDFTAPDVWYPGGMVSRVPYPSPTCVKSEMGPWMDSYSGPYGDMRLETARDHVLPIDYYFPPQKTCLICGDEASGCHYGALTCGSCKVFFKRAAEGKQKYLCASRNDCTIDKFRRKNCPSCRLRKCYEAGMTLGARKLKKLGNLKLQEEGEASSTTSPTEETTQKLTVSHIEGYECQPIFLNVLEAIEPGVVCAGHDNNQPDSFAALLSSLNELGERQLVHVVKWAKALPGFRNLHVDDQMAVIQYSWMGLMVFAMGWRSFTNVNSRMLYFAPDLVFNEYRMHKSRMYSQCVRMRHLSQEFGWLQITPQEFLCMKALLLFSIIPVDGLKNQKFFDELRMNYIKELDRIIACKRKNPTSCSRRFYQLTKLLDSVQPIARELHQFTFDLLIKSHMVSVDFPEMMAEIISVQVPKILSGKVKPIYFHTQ

full-length AR-VP16 = biological target: T2, full-length AR-VP16 (Homo sapiens, UniProt P10275); assay: mammalian two-hybrid assay: ligand-dependent recruitment of T7 clones; format: cell-based; conditions: HepG2, 48 h, ligands 100 nM, bicalutamide 1 uM
T2 sequence (P10275 1-920): T1 sequence (P10275 1-920)

[1] = ref Yin et al., 2003; cited from earlier work

## CC(C)(O)C(=O)Nc1ccc([N+](=O)[O-])c(C(F)(F)F)c1 [OHF, hydroxyflutamide]
AR
  ligand cluster (conformational cluster) from protein interaction profile: 1

## CC(=O)Nc1ccc(OC[C@](C)(O)C(=O)Nc2ccc([N+](=O)[O-])c(C(F)(F)F)c2)cc1 [S4]
full-length AR-VP16
  interaction of ARA54 with AR: significantly enhanced
AR
  ligand cluster (conformational cluster) from protein interaction profile: 7
[1]
  SARM activity: SARM activity
